From US20240245694A1, “Tricyclic Compounds and their Uses” (Novartis AG, priority 2022, published 2024)
pIC50: −log10 of the molar value.

Key:
SW48 cells = assay: Proliferation assay SW48 (CellTiterGlo, 96 hours); type: cell-based; conditions: Homo sapiens
Excerpt: (§1) The colon carcinoma cell lines SW48 (RRID: CVCL_1724), HCT 116 (RRID: CVCL_0291) and SNU-407 (RRID: CVCL_5058) were obtained from ATCC. The WRN-knockdown insensitive colon carcinoma cell line DLD-1 (RRID: CVCL_0248) was obtained from the Korean Cell Line Bank (KCLB), and used to generate a derivative in which the endogenous WRN gene copies were knocked out by CRISPR-mediated editing using standard CRISPR methods. The resulting cell line, DLD1-WRN-KO, was used to assess potential off-target compound effects.
(§2) SW48, SNU-407 and DLD1-WRN-KO cells were cultured in growth medium composed of RPMI-1640 (Amimed Cat #1-41F22-1), 2 mM L-Glutamine (Amimed Cat #5-10K50), 10 mM HEPES (Gibco Cat #15630-056), 1 mM sodium pyruvate (Amimed Cat #5-60F00-H), 1× Penicillin-Streptomycin (Amimed Cat #4-01F00-H) and 10% fetal calf serum (Amimed Cat #2-01F30-G, Lot #LB11566P). HCT 116 cells were cultured in growth medium composed of McCoys 5A (Amimed catalog #1-18F01-1), 2 mM L-Glutamine (Amimed Cat #5-10K50), 1× Penicillin-Streptomycin (Amimed Cat #4-01F00-H) and 10% fetal calf serum (Amimed Cat #2-01F30-G, Lot #LB11566P). All cells were maintained at 37° C. in a humidified 5% CO2 incubator.
(§3) Following filtration through a Steriflip-NY 20 μm filter (Millipore Cat #SCNY00020), trypsinized cells were seeded in 100 microliters growth medium at 2′000 (SW48) or 1′500 (SNU-407, DLD1-WRN-KO, HCT 116) cells/well into white, clear-bottom 96-well plates (Costar Cat #3903). Three replicate plates were prepared for each compound treatment condition. In addition, one plate (termed “day 0”) was prepared to quantify the number of viable cells at the time of compound addition. Following overnight incubation at 37° C. in a humidified 5% CO2 atmosphere, eight 3-fold serial dilutions of a given compound stock (obtained at a concentration of 10 mM in DMSO and stored at 4° C.) were dispensed directly into each of the triplicate assay plates using a HP 300D non-contact Digital Dispenser (TECAN). The final concentration of DMSO was normalized to 0.1% in all wells. 96 hours after compound addition, cellular ATP levels as a surrogate for cell viability was assessed following addition of 50 microliters CellTiterGlo (Promega Cat #G7573) reagent and luminescence quantification on a MPLEX multi-mode plate-reader (TECAN) following a 10 minute incubation at room temperature. The number of viable cells in the “day 0” plate were quantified identically on the day of compound addition.
(§4) For data analysis, the assay background signal that was determined in wells containing medium, but no cells, was subtracted from all other data points prior to further calculations. The extent of growth inhibition and potential cell kill was assessed by comparing the ATP levels (measured using CellTiterGlo, Promega) in compound-treated cells with those present at the time of compound addition. To this end, the following conditional concept was programmatically applied in HELIOS, an in-house software applying a multi-step decision tree to arrive at optimal concentration response curve fits (Gubler et al, SLAS DOI: 10.1177/2472555217752140) to calculate % growth (% G) for each compound-treated well: % G=(T−V0)/V0))*100 when T<V0, and % G=(T−V0)/(V−V0)))*100 when T>V0, where V0 is the viability level at time of compound addition, while V and T represent vehicle-control and compound-treated viability levels, respectively, at the end of the compound incubation. 100%, 0% and −100% signify absence of growth inhibition, growth stasis, and complete cell kill, respectively. Compound concentrations leading to half-maximal growth inhibition (G150) and residual cell viability at the highest tested compound concentration (Data (cmax), expressed in percent) were routinely calculated. Data analysis can also be carried out using commercially available software designed to derive IC50 values using 4-parameter fits (e.g. GraphPad Prism, XL fit). […]

DLD1-WRN-KO cells = assay: Proliferation assay DLD1-WRN-KO (CellTiterGlo, 96 hours), off-target effects; type: cell-based; conditions: Homo sapiens
Excerpt: as §1, §2, §3, §4

[1] = target: WRN helicase (core helicase motif aa N517-P1238) (Homo sapiens (Human), UniProt Q14191); assay: WRN ATPase assay (ADP-Glo), DNA dependent ATP hydrolysis; type: biochemical; conditions: 3 hours pre-incubation, 300 micromolar ATP, FLAP26 ssDNA; geometric means of at least 2 determinations
Excerpt: An ATPase assay was set up to measure the DNA dependent ATP hydrolysis activity of WRN helicase. This assay was used also to assess the inhibition properties of compounds of the invention on DNA dependent WRN ATPase activity.
The core helicase motif of the WRN protein (aa N517-P1238) was produced for this assay (protein production as described above). A 45 oligonucleotide sequence called “FLAP26” as described by Brosh et al., 2009, DOI: 10.1074/jbc.M111446200 ([…]; SEQ ID NO: 2) was purchased from IDT (Integrated DNA Technologies, Leuven, Belgium) and used as single strand DNA substrate. The ADP-Glo assay kit (Promega, Madison, WI) allowing the quantification of ADP produced in ATP hydrolysis reactions was used for setting up this assay. Time course experiments were first performed in order to determine the best enzymatic assay conditions (including buffer conditions, reaction time and concentrations of protein, ATP and DNA substrates). A typical reaction consists of 10 nM WRN protein, 0.2 nM FLAP26, and 300 micromolar ATP in the following assay buffer: 30 mM Tris pH7.5, 2 mM MgCl2, 0.02% BSA, 50 mM NaCl, 0.1% pluronic F127 prepared in DNAse free water.
To evaluate the inhibition properties of compounds of the invention, serial dilutions were prepared in DMSO (10 half log dilutions from a 10 mM DMSO solution). 50 nanoliters of each concentration was pre-incubated for 3 hours in a 384 small volume assay plate (Greiner #784075) with 2.5 microliters of a 20 nM WRN helicase protein in assay buffer with 600 micromolar ATP. Control wells were included with a “high control” (no inhibition), containing DMSO with no test compound, and “low controls” (maximal inhibition), containing buffer without protein. The reaction was started by addition of 2.5 microliters of FLAP26 at 0.4 nM and incubated for 30 minutes at room temperature. The reaction was stopped with the addition of 5 microliters of the first ADP-Glo reagent and incubated for one hour to remove the excess amount of ATP. Afterwards, 10 microliters of ATP detection reagent was added and incubated for an additional hour before reading. Luminescence output was recorded using Tecan 1000 reader, with 5 minutes delay before reading. Each concentration of compound was tested in duplicates in the assay plate.
Data analysis was carried out using an in-house developed software (Novartis Helios software application, Novartis Institutes for BioMedical Research, unpublished) using the methods described by Formenko et al., 2006, DOI: 10.1016/j.cmpb.2006.01.008. Following normalization of activity values for the wells to % inhibition (% inhibition=[(high control-sample)/(high control-low control)]×100), IC50 fitting was carried out from the duplicate determinations present on each plate according to [4]. Data analysis can also be carried out using commercially available software designed to derive IC50 values using 4-parameter fits (e.g. GraphPad Prism, XL fit). The reported IC50 values are the geometrical means of at least 2 independent replicates.

Chain of WRN helicase (core helicase motif aa N517-P1238) (Q14191 517-1238): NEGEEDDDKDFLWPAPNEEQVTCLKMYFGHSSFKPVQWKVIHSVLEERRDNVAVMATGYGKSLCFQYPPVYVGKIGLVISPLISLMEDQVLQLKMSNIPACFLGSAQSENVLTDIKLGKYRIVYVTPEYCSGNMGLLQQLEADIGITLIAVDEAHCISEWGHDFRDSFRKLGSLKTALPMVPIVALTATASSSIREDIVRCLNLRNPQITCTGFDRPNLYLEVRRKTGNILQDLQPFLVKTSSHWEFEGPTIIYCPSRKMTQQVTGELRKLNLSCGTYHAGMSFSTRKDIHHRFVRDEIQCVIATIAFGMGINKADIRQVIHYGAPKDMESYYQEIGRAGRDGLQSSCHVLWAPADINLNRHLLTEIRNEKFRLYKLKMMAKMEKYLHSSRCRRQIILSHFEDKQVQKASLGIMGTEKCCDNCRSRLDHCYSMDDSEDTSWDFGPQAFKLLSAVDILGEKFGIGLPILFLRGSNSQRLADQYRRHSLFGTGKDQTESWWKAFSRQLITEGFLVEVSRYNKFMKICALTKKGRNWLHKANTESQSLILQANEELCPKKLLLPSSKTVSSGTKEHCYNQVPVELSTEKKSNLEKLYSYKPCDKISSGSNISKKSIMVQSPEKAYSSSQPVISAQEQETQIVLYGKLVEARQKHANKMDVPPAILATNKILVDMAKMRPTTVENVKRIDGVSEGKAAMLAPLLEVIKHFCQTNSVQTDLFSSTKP

Row | SMILES | GI50 (SW48 cells) | GI50 (DLD1-WRN-KO cells) | pIC50 [1]
1 | C[C@@H]1C[C@@H](C(=O)Nc2ccc(C(F)(F)F)cc2Cl)n2c1c(N1CCN(C(=O)c3nccc(Cl)c3O)CC1)c(=O)n1nc(N3CCOCC3)nc21 [Example 1D, (7R,9S)-6-(4-(4-chloro-3-hydroxypicolinoyl)piperazin-1-yl)-N-(2-chloro-4-(trifluoromethyl)phenyl)-7-methyl-2-morpholino-5-oxo-5,7,8,9-tetrahydropyrrolo[1,2-c][1,2,4]triazolo[1,5-a]pyrimidine-9-carboxamide] | 5000 nM | > 10000 nM | 5.52
2 | CC(=O)N1CCN(c2c3n(c4nc(-c5ccccc5)nn4c2=O)C(C(=O)Nc2ccc(C(F)(F)F)cc2)CC3)CC1 (racemic) [Example 22, rac-6-(4-acetylpiperazin-1-yl)-5-oxo-2-phenyl-N-(4-(trifluoromethyl)phenyl)-5,7,8,9-tetrahydropyrrolo[1,2-c][1,2,4]triazolo[1,5-a]pyrimidine-9-carboxamide] | 6000 nM | > 10000 nM | 6.15
3 | Cc1ncnc(C(=O)N2CCN(c3c4n(c5nc(C6=CCOCC6)nn5c3=O)[C@H](C(=O)Nc3ccc(C(F)(F)F)cc3Cl)C[C@@H]4C)C[C@H]2C)c1O [Example 18B, (7S,9S)—N-(2-chloro-4-(trifluoromethyl)phenyl)-2-(3,6-dihydro-2H-pyran-4-yl)-6-((R)-4-(5-hydroxy-6-methylpyrimidine-4-carbonyl)-3-methylpiperazin-1-yl)-7-methyl-5-oxo-5,7,8,9-tetrahydropyrrolo[1,2-c][1,2,4]triazolo[1,5-a]pyrimidine-9-carboxamide] | > 10000 nM | > 10000 nM | 4.44
4 | Cc1ncnc(C(=O)N2CCN(c3c4n(c5nc(C6=CCOCC6)nn5c3=O)[C@H](C(=O)Nc3ccc(C(F)(F)F)cc3Cl)C[C@H]4C)C[C@H]2C)c1O [Example 18C, (7R,9S)—N-(2-chloro-4-(trifluoromethyl)phenyl)-2-(3,6-dihydro-2H-pyran-4-yl)-6-((R)-4-(5-hydroxy-6-methylpyrimidine-4-carbonyl)-3-methylpiperazin-1-yl)-7-methyl-5-oxo-5,7,8,9-tetrahydropyrrolo[1,2-c][1,2,4]triazolo[1,5-a]pyrimidine-9-carboxamide] | > 10000 nM | > 10000 nM | < 5.00

Stronger by GI50 (SW48 cells), values ahead:

Row | GI50 (SW48 cells) | GI50 (DLD1-WRN-KO cells) | pIC50 [1] | SMILES
5 | 20 nM | > 10000 nM | 7.70 | Cc1cc(F)c(O)c(C(=O)N2CCN(c3c4n(c5nc(C6=CCOCC6)nn5c3=O)[C@@H](C(=O)Nc3ccc(C(F)(F)F)cc3Cl)C[C@H]4C)CC2)n1 [Example 8, (7R,9R)—N-(2-chloro-4-(trifluoromethyl)phenyl)-2-(3,6-dihydro-2H-pyran-4-yl)-6-(4-(4-fluoro-3-hydroxy-6-methylpicolinoyl)piperazin-1-yl)-7-methyl-5-oxo-5,7,8,9-tetrahydropyrrolo[1,2-c][1,2,4]triazolo[1,5-a]pyrimidine-9-carboxamide]
6 | 100 nM | > 10000 nM | 7.05 | Cc1ncnc(C(=O)N2CCN(c3c4n(c5nc(C6=CCOCC6)nn5c3=O)[C@@H](C(=O)Nc3ccc(C(F)(F)F)nc3Cl)C[C@H]4C)CC2)c1O [Example 4A, (7R,9R)—N-(2-chloro-6-(trifluoromethyl)pyridin-3-yl)-2-(3,6-dihydro-2H-pyran-4-yl)-6-(4-(5-hydroxy-6-methylpyrimidine-4-carbonyl)piperazin-1-yl)-7-methyl-5-oxo-5,7,8,9-tetrahydropyrrolo[1,2-c][1,2,4]triazolo[1,5-a]pyrimidine-9-carboxamide]
7 | 40 nM | > 10000 nM | 7.30 | C[C@@H]1C[C@H](C(=O)Nc2ccc(C(F)(F)F)cc2Cl)n2c1c(N1CCN(C(=O)c3ncncc3O)CC1)c(=O)n1nc(C3=CCOCC3)nc21 [Example 13, (7R,9R)—N-(2-chloro-4-(trifluoromethyl)phenyl)-2-(3,6-dihydro-2H-pyran-4-yl)-6-(4-(5-hydroxypyrimidine-4-carbonyl)piperazin-1-yl)-7-methyl-5-oxo-5,7,8,9-tetrahydropyrrolo[1,2-c][1,2,4]triazolo[1,5-a]pyrimidine-9-carboxamide]
8 | 20 nM | > 10000 nM | 7.40 | Cc1ncnc(C(=O)N2CCN(c3c4n(c5nc(C6=CCOCC6)nn5c3=O)[C@@H](C(=O)Nc3ccc(C(F)(F)F)cc3Cl)C[C@H]4C)CC2)c1O [Example 14A, (7R,9R)—N-(2-chloro-4-(trifluoromethyl)phenyl)-2-(3,6-dihydro-2H-pyran-4-yl)-6-(4-(5-hydroxy-6-methylpyrimidine-4-carbonyl)piperazin-1-yl)-7-methyl-5-oxo-5,7,8,9-tetrahydropyrrolo[1,2-c][1,2,4]triazolo[1,5-a]pyrimidine-9-carboxamide]
9 | 40 nM | > 10000 nM | 7.70 | Cc1ncnc(C(=O)N2CCN(c3c4n(c5nc(N6CCOCC6)nn5c3=O)[C@@H](C(=O)Nc3ccc(C(F)(F)F)cc3Cl)C[C@H]4C)CC2)c1O [Example 2A, (7R,9R)—N-(2-chloro-4-(trifluoromethyl)phenyl)-6-(4-(5-hydroxy-6-methylpyrimidine-4-carbonyl)piperazin-1-yl)-7-methyl-2-morpholino-5-oxo-5,7,8,9-tetrahydropyrrolo[1,2-c][1,2,4]triazolo[1,5-a]pyrimidine-9-carboxamide]
